Measured values: patent US20020082270A1, “Aminoquinazolines which inhibit signal transduction mediated by tyrosine kinases” (priority 2000, published 2002)

Target: T1, human EGF-R (Homo sapiens, UniProt P00533)
T1 construct: expressed in transfected cells; host or cells: F/L-HERc cells: murine IL-3-dependent FDC-P1 cells transduced with retroviral vector LXSN carrying human EGF-R cDNA (packaging line GP+E86)
Experiment: Inhibition of EGF-dependent proliferation of F/L-HERc cells
Type: cell-based
Conditions: F/L-HERc cells (murine IL-3-dependent line expressing human EGF-R), stimulated with EGF 20 ng/ml, 48 hours, Cell Titer 96 AQueous assay
From the text: A cell line of murine origin dependent on interleukin-3-(IL-3) which was genetically modified to express functional human EGF-R was used here. The proliferation of these cells known as F/L-HERc can therefore be stimulated either by murine IL-3 or by EGF (cf. von Rüden, T. et al. in EMBO J. 7, 2749-2756 (1988) and Pierce, J. H. et al. in Science 239, 628-631 (1988)).
The starting material used for the F/L-HERc cells was the cell line FDC-P1, the production of which has been described by Dexter, T. M. et al. in J. Exp. Med. 152, 1036-1047 (1980). Alternatively, however, other growth-factor-dependent cells may also be used (cf. for example Pierce, J. H. et al. in Science 239, 628-631 (1988), Shibuya, H. et al. in Cell 70, 57-67 (1992) and Alexander, W. S. et al. in EMBO J. 10, 3683-3691 (1991)). […]
In order to determine the inhibitory activity of the compounds according to the invention the relative cell number was measured in O.D. units using the Cell Titer 96™ AQueous Non-Radioactive Cell Proliferation Assay (Promega). […]

T1 sequence (P00533 25-1210): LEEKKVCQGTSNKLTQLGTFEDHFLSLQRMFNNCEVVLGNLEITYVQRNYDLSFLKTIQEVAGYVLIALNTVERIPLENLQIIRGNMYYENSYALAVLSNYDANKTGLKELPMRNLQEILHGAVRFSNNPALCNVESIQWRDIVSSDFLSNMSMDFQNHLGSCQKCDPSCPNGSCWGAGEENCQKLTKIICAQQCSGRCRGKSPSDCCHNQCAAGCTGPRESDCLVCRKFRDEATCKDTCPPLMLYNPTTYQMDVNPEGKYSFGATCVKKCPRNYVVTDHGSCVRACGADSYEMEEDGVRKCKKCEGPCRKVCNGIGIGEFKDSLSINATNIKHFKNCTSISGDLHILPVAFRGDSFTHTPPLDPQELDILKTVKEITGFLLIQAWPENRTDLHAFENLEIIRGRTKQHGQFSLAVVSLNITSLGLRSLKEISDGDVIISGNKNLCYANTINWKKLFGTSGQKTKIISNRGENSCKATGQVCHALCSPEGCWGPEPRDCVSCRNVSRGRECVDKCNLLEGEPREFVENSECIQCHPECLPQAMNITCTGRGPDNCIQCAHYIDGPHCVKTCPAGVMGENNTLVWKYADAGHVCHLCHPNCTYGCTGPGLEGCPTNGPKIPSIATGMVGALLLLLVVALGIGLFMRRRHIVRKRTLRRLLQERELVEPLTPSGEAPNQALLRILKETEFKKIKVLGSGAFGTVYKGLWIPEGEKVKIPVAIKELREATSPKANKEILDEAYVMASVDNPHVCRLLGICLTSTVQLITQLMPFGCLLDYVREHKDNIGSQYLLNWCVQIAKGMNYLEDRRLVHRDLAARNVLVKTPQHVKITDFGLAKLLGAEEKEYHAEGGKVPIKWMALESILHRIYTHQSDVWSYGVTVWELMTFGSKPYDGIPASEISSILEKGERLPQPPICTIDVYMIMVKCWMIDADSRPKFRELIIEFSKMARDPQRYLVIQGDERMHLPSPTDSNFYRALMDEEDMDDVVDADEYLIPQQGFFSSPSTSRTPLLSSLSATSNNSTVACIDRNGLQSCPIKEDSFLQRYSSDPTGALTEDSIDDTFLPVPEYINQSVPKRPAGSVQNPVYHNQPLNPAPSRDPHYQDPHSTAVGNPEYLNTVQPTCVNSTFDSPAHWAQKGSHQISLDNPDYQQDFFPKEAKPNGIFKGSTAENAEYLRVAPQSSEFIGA

SMILES: C=CC(=O)Nc1cc2c(N[C@H](C)c3ccccc3)ncnc2cc1OCCN1CCN(C2COC(=O)C2)CC1 (stereo partly drawn) [1 (2), 4-[(R)-(1-phenylethyl)amino]-7-{2-[4-(2-oxo-tetrahydrofuran-4-yl)-piperazin-1-yl]-ethoxy}-6-[(vinylcarbonyl)amino]-quinazoline]
- IC50: 12 nM
